According to patent publication US12552783B2, “Modulators of proteolysis and associated methods of use” (Arvinas Operations, Inc., priority 2018, dated 2026):
Blank lines part the entries; values can stand above or below the compound they belong to.

Assays:
Type in all cases: cell-based
[1] = target: T1, KRas (Homo sapiens, UniProt P01116, G12C); assay: KRas degradation in H2030 cells by Western blot (data of Table 5); design: host or cells: NCI-H2030; details: H2030 cells serum starved 24 hours, KRas immunoblot; for H2030 Degradation at 0.3 uM: treated 24 hours with 0.3 uM; for H2030 Degradation at 1 uM: treated 24 hours with 1 uM; for H2030 Degradation at 3 uM: treated 24 hours with 3 uM
Description: Cell Lines, Antibodies, and Reagents. NCI-H2030 (CRL-5914) and SW1573 (CRL-2170) cells were purchased from ATCC. Both cell lines are homozygous for the G12C mutation in KRas. NCI-H2030 cells were cultured in RPMI-1640 medium containing 1% penicillin-streptomycin and 10% fetal bovine serum (FBS). SW1573 cells were cultured in DMEM containing 1% penicillin-streptomycin and 10% FBS. The KRas detection antibody (Cat. No. LS-C175665) was purchased from LifeSpan Biosciences and was used at a dilution of 1:2000. GAPDH was detected using an antibody purchased from Cell Signaling Technology (Cat. No. 5174) and was diluted 1:3000. Secondary anti-mouse and anti-rabbit detection antibodies were purchased from Cell Signaling Technology (Cat. Nos. 7076 and 7074, respectively).
Compound Treatment and Western Blotting of the Data of Table 5. H2030 cells in 12-well plates were serum starved for 24 hours, and then treated with 0.3 uM, 1 uM, and 3 uM of the indicated bifunctional compound, for 24 hours. Cells were lysed in a Cell Signaling Technology Cell Lysis Buffer (Cat. No. #9803) supplemented with protease inhibitors, and proteins were separated by SDS-PAGE. KRas was detected by immunoblotting using the LSBio antibody (Cat. No. LS-C175665).
DC50 is the half-maximal degradation concentration—i.e., the concentration at which 50% degradation is observed. DMax is the maximum degradation efficacy is achieved—i.e., the maximal degradation observed) degradation data.

[2] = target: T2, KRas^G12C (Homo sapiens, UniProt P01116, G12C); assay: Western blot of KRas G12C degradation and gel shift (FIGS. 2A and 2B); details: for covalent modification of KRas^G12C, as seen by the gel shift: Western blot gel shift, FIGS. 2A and 2B; for degrader potency shown by Western blot: FIG. 2A / FIG. 2B
T2 construct: endogenous in cells

[3] = target: T2, KRas^G12C; assay: Western blot mobility shift of KRas after treating cells with bifunctional compound (FIGS. 2A and 2B); details: for KRas degrader activity (representative Western blot): FIG. 2A / FIG. 2B; for covalent modification of KRas seen by gel shift: upper band is KRas and the bifunctional compound, lower band is KRas alone
Source text: FIGS. 2A and 2B show the result of treating cells with either a bifunctional compound alone or a bifunctional compound and an E3 ubiquitin ligase inhibitor, and then detecting the KRas protein on the gel. The mobility shift of KRas detection on the gel illustrates that the bifunctional compounds covalently modify KRas. The upper band is KRas and the bifunctional compound, while the lower band is KRas alone.

[4] = target: T1, KRas; assay: KRas degradation in NCI-H2030 cells by Western blot, normalized to GAPDH (data of Table 14); design: host or cells: NCI-H2030
How it was run: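 Cells serum-starved 24 h, then treated at 0.3, 1 and 3 μM in 0.1% DMSO, 24 h for VHL-based compounds and 72 h for others. Lysates (10 μg protein) immunoblotted; KRas normalized to GAPDH, degradation visually estimated below 25% or quantified versus DMSO lane, giving DC50 and DMax.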

[5] = target: T1, KRas; assay: KRas degradation in SW1573 cells by Western blot, normalized to GAPDH (data of Table 14)
How it was run: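 SW1573 cells, homozygous for the KRas G12C mutation and maintained in DMEM with 10% FBS and 1% penicillin-streptomycin, were seeded in 12-well plates, allowed to attach overnight at 37° C. under 5% CO2, then serum-starved for 24 hours before compound exposure. KRas levels were measured by Western blot, normalized to GAPDH, and compared with DMSO controls to give percent degradation, DC50 and Dmax.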

H2030 Degradation at 0.3 uM [1]: C (C < 25)
H2030 Degradation at 1 uM [1]: C (C < 25)
H2030 Degradation at 3 uM [1]: C (C < 25)
SMILES: CCC(=O)N1CCN(c2nc(NCCC(=O)N(C)CCOCCOCCOCC(=O)N[C@H](C(=O)N3C[C@H](O)C[C@H]3C(=O)N[C@@H](C)c3ccc(-c4scnc4C)cc3)C(C)(C)C)nc3c(F)c(-c4cc(O)cc5ccccc45)c(Cl)cc23)CC1 [compound 9, (2S,4R)-1-((S)-2-(tert-butyl)-18-((6-chloro-8-fluoro-7-(3-hydroxynaphthalen-1-yl)-4-(4-propionylpiperazin-1-yl)-5H-312-quinazolin-2-yl)amino)-15-methyl-4,16-dioxo-6,9,12-trioxa-3,15-diazaoctadecanoyl)-4-hydroxy-N-((S)-1-(4-(4-methyl-312-thiazol-5-yl)phenyl)ethyl) pyrrolidine-2-carboxamide]

H2030 Degradation at 0.3 uM [1]: C (C < 25)
H2030 Degradation at 1 uM [1]: C (C < 25)
H2030 Degradation at 3 uM [1]: C (C < 25)
SMILES: CCC(=O)N1CCN(c2nc(NCCC(=O)N(C)CCOCCOCCOCCOCCOc3ccc4c(c3)CN(C3CCC(=O)NC3=O)C4=O)nc3c(F)c(-c4cc(O)cc5ccccc45)c(Cl)cc23)CC1 (stereo not drawn) [compound 10, 3-((6-chloro-8-fluoro-7-(3-hydroxynaphthalen-1-yl)-4-(4-propionylpiperazin-1-yl)quinazolin-2-yl)amino)-N-(14-((2-(2,6-dioxopiperidin-3-yl)-1-oxoisoindolin-5-yl)oxy)-3,6,9,12-tetraoxatetradecyl)-N-methylpropanamide]

covalent modification of KRas^G12C, as seen by the gel shift [2]: covalently modify KRas^G12C
degrader potency shown by Western blot [2]: potent degrader
KRas degrader activity (representative Western blot) [3]: potent degrader
covalent modification of KRas seen by gel shift [3]: covalently modify KRas^G12C
DC50 ([4]; H2030): ≥ 1000 nM
Percent Degradation at Indicated Concentration (μM) ([4]; H2030, 0.03 μM): C (Percent Degradation: C ≤ 35)
Percent Degradation at Indicated Concentration (μM) ([4]; H2030, 0.1 μM): C (Percent Degradation: C ≤ 35)
Percent Degradation at Indicated Concentration (μM) ([4]; H2030, 0.3 μM): C (Percent Degradation: C ≤ 35)
Percent Degradation at Indicated Concentration (μM) ([4]; H2030, 1 μM): C (Percent Degradation: C ≤ 35)
Percent Degradation at Indicated Concentration (μM) ([4]; H2030, 3 μM): B (35 < B < 70)
Percent Degradation at Indicated Concentration (μM) ([4]; H2030, 10 μM): C (Percent Degradation: C ≤ 35)
Dmax ([4]; NCI-H2030): 35 to 70%
DC50 ([5]; SW1573): < 100 nM
Dmax ([5]; SW1573): 35 to 70%
Percent Degradation at Indicated Concentration (μM) ([5]; SW1573, 0.03 μM): C (Percent Degradation: C ≤ 35)
Percent Degradation at Indicated Concentration (μM) ([5]; SW1573, 0.1 μM): B (35 < B < 70)
Percent Degradation at Indicated Concentration (μM) ([5]; SW1573, 0.3 μM): B (35 < B < 70)
Percent Degradation at Indicated Concentration (μM) ([5]; SW1573, 1 μM): B (35 < B < 70)
Percent Degradation at Indicated Concentration (μM) ([5]; SW1573, 3 μM): B (35 < B < 70)
Percent Degradation at Indicated Concentration (μM) ([5]; SW1573, 10 μM): C (Percent Degradation: C ≤ 35)
SMILES: C=CC(=O)N1CCN(c2nc(O[C@H](C)CN3CCC(OCCOCCOCC(=O)N[C@H](C(=O)N4C[C@H](O)C[C@H]4C(=O)N[C@@H](C)c4ccc(-c5scnc5C)cc4)C(C)(C)C)CC3)nc3c(F)c(-c4cc(O)cc5ccccc45)c(Cl)cc23)CC1 [compound 399, (2S,4R)-1-((2S)-2-(2-(2-(2-((1-((2R)-2-((4-(4-acryloylpiperazin-1-yl)-6-chloro-8-fluoro-7-(3-hydroxynaphthalen-1-yl)quinazolin-2-yl)oxy)propyl)piperidin-4-yl)oxy)ethoxy)ethoxy)acetamido)-3,3-dimethylbutanoyl)-4-hydroxy-N-((S)-1-(4-(4-methylthiazol-5-yl)phenyl)ethyl)pyrrolidine-2-carboxamide]

covalent modification of KRas^G12C, as seen by the gel shift [2]: covalently modify KRas^G12C
degrader potency shown by Western blot [2]: less potent degrader
KRas degrader activity (representative Western blot) [3]: less active degrader
covalent modification of KRas seen by gel shift [3]: covalently modify KRas^G12C
Percent Degradation at Indicated Concentration (μM) ([5]; SW1573 cells, 0.1 μM): C (Percent Degradation: C ≤ 35)
Percent Degradation at Indicated Concentration (μM) ([5]; SW1573 cells, 0.3 μM): C (Percent Degradation: C ≤ 35)
Percent Degradation at Indicated Concentration (μM) ([5]; SW1573 cells, 1 μM): C (Percent Degradation: C ≤ 35)
SMILES: C=CC(=O)N1CCN(c2nc(O[C@H](C)CN3CCN(CC4CCN(c5ccc6c(c5)C(=O)N(C5CCC(=O)NC5=O)C6=O)CC4)CC3)nc3c(F)c(-c4cc(O)cc5ccccc45)c(Cl)cc23)CC1 (stereo partly drawn) [compound 432, 5-(4-((4-((2R)-2-((4-(4-acryloylpiperazin-1-yl)-6-chloro-8-fluoro-7-(3-hydroxynaphthalen-1-yl)quinazolin-2-yl)oxy)propyl)piperazin-1-yl)methyl)piperidin-1-yl)-2-(2,6-dioxopiperidin-3-yl)isoindoline-1,3-dione]
